Common to all, as to experiment: Inhibitory effect on growth of human cancer cells (in vitro), WST-8
What all share (type): cell-based
In general terms: Formazan colour is commonly taken as a measure of viable cells.

Assay [1] relates to human colorectal cancer HCT116 cells. As to conditions: Homo sapiens, HCT-116, 96 h, 96 hours culture. The procedure:
(§1) Each pyrrole compound of the present invention was studied for its effects on the growth of human non-small cell lung cancer A549 cells and human colorectal cancer HT-29 cells and HCT116 cells. The cells of each line were suspended in an RPMI1640 medium supplemented with 10% fetal bovine serum and inoculated at a cell density of 1000 cells/50 μL/well to a 96-well plate. After overnight culture, each compound diluted with a medium was added thereto at a concentration of 50 μL/well, and the cells were further cultured for 96 hours. After the completion of culture, WST-8 (Seikagaku Corp.) was added thereto at a concentration of 10 μL/well, and the cells were cultured at 37° C. for approximately 1 hour under 5% CO2 conditions, followed by measurement of absorbance at 450 nm.

Assay [2] has as its system human colorectal cancer HT-29 cells. As to conditions: Homo sapiens, HT-29, 96 h, 96 hours culture, read-out: IC50 (nM) HT29. The procedure:
as §1

Assay [3] concerns human non-small cell lung cancer A549 cells. As to conditions: 96 hours culture. The procedure: as §1

The record followed here is patent publication US20140343017A1, “PYRROLE COMPOUND” (Kabushiki Kaisha Yakult Honsha, priority 2012, published 2014).

One may read the IC50 as the concentration at which inhibition is half-maximal.

With `Cc1c(-c2nnn(CCO)n2)[nH]c(C#N)c1C(=O)c1cccc(Br)c1` [Compound 133, 3-(3-bromobenzoyl)-5-(2-(2-hydroxyethyl)-2H-tetrazol-5-yl)-4-methyl-1H-pyrrole-2-carbonitrile], the 50% inhibitory concentration (IC50) in assay [1] came out at 158 nM; in assay [2], 192 nM; in assay [3] (Homo sapiens, A549, 96 h), 238 nM.

Turning to `Cc1[nH]c(-c2nnc(CCCl)o2)c(C)c1C(=O)c1cccc(Br)c1` [Compound 174, (3-bromophenyl)(5-(5-(2-chloroethyl)-1,3,4-oxadiazol-2-yl)-2,4-dimethyl-1H-pyrrol-3-yl)methanone], the IC50 in assay [1] was found to be 44.6 nM; in assay [2], 38.6 nM; in assay [3] (Homo sapiens, A549, 96 h), 77.1 nM.

On to `Cc1c(-c2nnc(C3CC3)o2)[nH]c(CO)c1C(=O)c1cccc(Br)c1` [Compound 264, (3-bromophenyl)(5-(5-cyclopropyl-1,3,4-oxadiazol-2-yl)-2-(hydroxymethyl)-4-methyl-1H-pyrrol-3-yl)methanone], for which the IC50 was found to be 1.8 nM in assay [1]; 1.8 nM in assay [2]; 8.2 nM in assay [3] (Homo sapiens, A549, 96 h).

As for `COc1ccc(C(=O)c2c(C=O)[nH]c(-c3nnn(CCO)n3)c2C)cc1Br` [Compound 125, 3-(3-bromo-4-methoxybenzoyl)-5-(2-(2-hydroxyethyl)-2H-tetrazol-5-yl)-4-methyl-1H-pyrrole-2-carboaldehyde], the half-inhibitory concentration (IC50) is 93.2 nM in assay [1]; 35.2 nM in assay [2]; 45.8 nM in assay [3] (Homo sapiens, A549, 96 h).

Turning to `Cc1[nH]c(-c2nnc(CN)o2)c(C)c1C(=O)c1cccc(Br)c1` [Compound 214, (5-(5-(aminomethyl)-1,3,4-oxadiazol-2-yl)-2,4-dimethyl-1H-pyrrol-3-yl)(3-bromophenyl)methanone], the half-inhibitory concentration (IC50) in assay [1] amounted to 286 nM; in assay [2], 230 nM; in assay [3] (Homo sapiens, A549, 96 h), 999 nM.

As for `COc1ccc(C(=O)c2c(/C=N/O)[nH]c(-c3nnn(CCOC(C)=O)n3)c2C)cc1Br` [Compound 169, (E)-2-(5-(4-(3-bromo-4-methoxybenzoyl)-5-((hydroxyimino)methyl)-3-methyl-1H-pyrrol-2-yl)-2H-tetrazol-2-yl)ethyl acetate], the concentration for half-maximal inhibition (IC50) in assay [1] was found to be 162 nM; in assay [2], 167 nM; in assay [3] (Homo sapiens, A549, 96 h), 225 nM.

In the case of `CCc1nnc(-c2c(C)c(C(=O)c3cccc(Br)c3)c(C)n2C)o1` [Compound 223, (3-bromophenyl) (5-(5-ethyl-1,3,4-oxadiazol-2-yl)-1,2,4-trimethyl-1H-pyrrol-3-yl)methanone], the IC50 was found to be 46.9 nM in assay [1]; 28.1 nM in assay [2]; 231 nM in assay [3] (Homo sapiens, A549, 96 h).

Take `Cc1[nH]c(-c2nnc(C(C)C)o2)c(C)c1C(=O)c1cccc(Br)c1` [Compound 178, (3-bromophenyl) (5-(5-isopropyl-1,3,4-oxadiazol-2-yl)-2,4-dimethyl-1H-pyrrol-3-yl)methanone]: the IC50 was found to be 45.1 nM in assay [1]; 36.9 nM in assay [2]; 71.8 nM in assay [3] (Homo sapiens, A549, 96 h).

On to `C=Cc1nnc(-c2[nH]c(C)c(C(=O)c3cccc(Br)c3)c2C)o1` [Compound 206, (3-bromophenyl)(2,4-dimethyl-5-(5-vinyl-1,3,4-oxadiazol-2-yl)-1H-pyrrol-3-yl)methanone], for which the IC50 was 9.5 nM in assay [1]; 8.8 nM in assay [2]; 31.5 nM in assay [3] (Homo sapiens, A549, 96 h).

As to `CCc1nnc(-c2c(C)c(C(=O)c3cccc(Br)c3)c(C)n2S(C)(=O)=O)o1` [Compound 225, (3-bromophenyl)(5-(5-ethyl-1,3,4-oxadiazol-2-yl)-2,4-dimethyl-1-(methylsulfonyl)-1H-pyrrol-3-yl)methanone], the IC50 in assay [1] was 9.2 nM; in assay [2] it was 6.6 nM; in assay [3] (Homo sapiens, A549, 96 h), 9.7 nM.

For `Cc1[nH]c(-c2nnc(C3CCC3)o2)c(C)c1C(=O)c1cccc(Br)c1` [Compound 179, (3-bromophenyl) (5-(5-cyclobutyl-1,3,4-oxadiazol-2-yl)-2,4-dimethyl-1H-pyrrol-3-yl)methanone], the IC50 came to 329 nM in assay [1]; 336 nM in assay [2]; 800 nM in assay [3] (Homo sapiens, A549, 96 h).

`COc1ccc(C(=O)c2c(C(C)O)[nH]c(-c3nnn(CCO)n3)c2C)cc1Br` (stereo not drawn) [Compound 131, (3-bromo-4-methoxyphenyl)(2-(1-hydroxyethyl)-5-(2-(2-hydroxyethyl)-2H-tetrazol-5-yl)-4-methyl-1H-pyrrol-3-yl)methanone]: the concentration for half-maximal inhibition (IC50) in assay [1] worked out at 90.9 nM; in assay [2] it was 34.8 nM; in assay [3] (Homo sapiens, A549, 96 h) it was 45.1 nM.

Take `C=Cc1[nH]c(-c2nnc(C3CC3)o2)c(C)c1C(=O)c1cccc(Br)c1` [Compound 260, (3-bromophenyl) (5-(5-cyclopropyl-1,3,4-oxadiazol-2-yl)-4-methyl-2-vinyl-1H-pyrrol-3-yl)methanone]: the IC50 stood at 0.3 nM in assay [1]; 0.3 nM in assay [2]; 0.4 nM in assay [3] (Homo sapiens, A549, 96 h).

Take `CNC(=O)c1[nH]c(-c2nnn(CCN)n2)c(C)c1C(=O)c1cccc(Br)c1` [Compound 282, 5-(2-(2-aminoethyl)-2H-tetrazol-5-yl)-3-(3-bromobenzoyl)-N,4-dimethyl-1H-pyrrole-2-carboxamide]: the 50% inhibitory concentration (IC50) in assay [1] was 754 nM; in assay [2], 315 nM; in assay [3] (Homo sapiens, A549, 96 h) it was 525 nM.

As to `Cc1[nH]c(-c2nnc(C3CC3)o2)c(C)c1C(=O)c1cccc(CO)c1` [Compound 199, (5-(5-cyclopropyl-1,3,4-oxadiazol-2-yl)-2,4-dimethyl-1H-pyrrol-3-yl)(3-(hydroxymethyl)phenyl)methanone], the IC50 in assay [1] was determined as 10.6 nM; in assay [2], 9 nM; in assay [3] (Homo sapiens, A549, 96 h), 19.5 nM.

As for `CC(=O)OCCc1nnc(-c2[nH]c(C)c(C(=O)c3cccc(Br)c3)c2C)o1` [Compound 204, 2-(5-(4-(3-bromobenzoyl)-3,5-dimethyl-1H-pyrrol-2-yl)-1,3,4-oxadiazol-2-yl)ethyl acetate], the IC50 came to 8.9 nM in assay [1]; 5.9 nM in assay [2]; 31.1 nM in assay [3] (Homo sapiens, A549, 96 h).

Turning to `CNC(=O)c1[nH]c(-c2nnn(CCOC(C)=O)n2)c(C)c1C(=O)c1ccc(OC)c(Br)c1` [Compound 295, 2-(5-(4-(3-bromo-4-methoxybenzoyl)-3-methyl-5-(methylcarbamoyl)-1H-pyrrol-2-yl)-2H-tetrazol-2-yl)ethyl acetate], the IC50 in assay [1] worked out at 957 nM; in assay [2], 460 nM; in assay [3] (Homo sapiens, A549, 96 h) it was 509 nM.

Regarding `CCc1nnc(-c2c(C)c(C(=O)c3cccc(Br)c3)c(C)n2C(=O)c2ccccc2)o1` [Compound 237, (1-benzoyl-5-(5-ethyl-1,3,4-oxadiazol-2-yl)-2,4-dimethyl-1H-pyrrol-3-yl) (3-bromophenyl)methanone], the half-inhibitory concentration (IC50) in assay [1] came out at 0.6 nM; in assay [2] it was 0.3 nM; in assay [3] (Homo sapiens, A549, 96 h) it was 1.9 nM.

With `CCc1nnc(-c2c(C)c(C(=O)c3cccc(Br)c3)c(C)n2CCOC(C)=O)o1` [Compound 235, 2-(3-(3-bromobenzoyl)-2,4-dimethyl-5-(5-ethyl-1,3,4-oxadiazol-2-yl)-1H-pyrrol-1-yl)ethyl acetate], the 50% inhibitory concentration (IC50) is 239 nM in assay [1]; 172 nM in assay [2]; 738 nM in assay [3] (Homo sapiens, A549, 96 h).

For `CNC(=O)c1[nH]c(-c2nnn(CCO)n2)c(C)c1C(=O)c1ccc(OC)c(Br)c1` [Compound 149, 3-(3-bromo-4-methoxybenzoyl)-5-(2-(2-hydroxyethyl)-2H-tetrazol-5-yl)-N,4-dimethyl-1H-pyrrole-2-carboxamide], the IC50 came out at 219 nM in assay [1]; 232 nM in assay [2]; 306 nM in assay [3] (Homo sapiens, A549, 96 h).

Take `CCc1nnc(-c2c(C)c(C(=O)c3cccc(Br)c3)c(C)n2C(C)=O)o1` [Compound 224, 1-(3-(3-bromobenzoyl)-5-(5-ethyl-1,3,4-oxadiazol-2-yl)-2,4-dimethyl-1H-pyrrol-1-yl)ethanone]: the half-inhibitory concentration (IC50) in assay [1] was 1.7 nM; in assay [2] it was 1.3 nM; in assay [3] (Homo sapiens, A549, 96 h), 1.8 nM.

`CCn1nnc(-c2[nH]c(C)c(C(=O)c3ccc(OCCN)c(Br)c3)c2C)n1` [Compound 167, (4-(2-aminoethoxy)-3-bromophenyl) (5-(2-ethyl-2H-tetrazol-5-yl)-2,4-dimethyl-1H-pyrrol-3-yl)methanone]: the IC50 worked out at 39.5 nM in assay [1], 31.5 nM in assay [2] and 139 nM in assay [3].

Turning to `CCc1nnc(-c2c(C)c(C(=O)c3cccc(Br)c3)c(C)n2S(=O)(=O)C2CC2)o1` [Compound 227, (3-bromophenyl) (1-(cyclopropylsulfonyl)-5-(5-ethyl-1,3,4-oxadiazol-2-yl)-2,4-dimethyl-1H-pyrrol-3-yl)methanone], the IC50 was determined as 447 nM in assay [1]; 290 nM in assay [2]; 555 nM in assay [3] (Homo sapiens, A549, 96 h).

On to `Cc1[nH]c(-c2nnc(C3CC3)o2)c(C)c1C(=O)c1cccc([N+](=O)[O-])c1` [Compound 196, (5-(5-cyclopropyl-1,3,4-oxadiazol-2-yl)-2,4-dimethyl-1H-pyrrol-3-yl)(3-nitrophenyl)methanone], for which the 50% inhibitory concentration (IC50) in assay [1] is 5.5 nM; in assay [2], 6.2 nM; in assay [3] (Homo sapiens, A549, 96 h), 9.9 nM.

In the case of `COc1ccc(C(=O)c2c(C=O)[nH]c(-c3nnn(CCOC(C)=O)n3)c2C)cc1Br` [Compound 124, 2-(5-(4-(3-bromo-4-methoxybenzoyl)-5-formyl-3-methyl-1H-pyrrol-2-yl)-2H-tetrazol-2-yl)ethyl acetate], the IC50 is 37.8 nM in assay [1]; 30.4 nM in assay [2]; 38.6 nM in assay [3] (Homo sapiens, A549, 96 h).
